{
  "source": "paper PMC7979765",
  "about": "“trans-Translation inhibitors bind to a novel site on the ribosome and clear Neisseria gonorrhoeae in vivo” (Nature Communications, 2021)",
  "key": {"[1]": {"system": "HeLa cells", "experiment": "Mammalian cell cytotoxicity (CC50)", "type": "cell-based, human", "settings": "HeLa, replicates", "description": "The half maximal cytotoxic concentration (CC50) of each compound against HeLa cells (ATCC CCL-2) was measured as previously described. […] The mean values for each biological replicate were averaged, and the CC50 was determined using a 4-parameter nonlinear curve fitting algorithm (GraphPad Prism). The average of the CC50s from two biological replicates was calculated and reported."}, "[2]": {"system": "Escherichia coli", "experiment": "microbe, parasite or virus in culture", "type": "cell-based", "settings": "E. coli KLE701 (ΔtolC::tet); source data, individual replicates"}, "[3]": {"system": "trans-translation", "experiment": "microbe, parasite or virus in culture", "type": "cell-based, Escherichia coli", "settings": "Eco Luc reporter, one value per replicate; read-out: IC50", "description": "To verify that MBX-4132 retains activity as an inhibitor of trans-translation, we measured its dose-dependent activity against the non-stop luciferase reporter assay strain E. coli SB75 ΔtolC::kan (pluc-trpAt) essentially as described, with modifications. Briefly, serial 1.5-fold dilutions of MBX-4132 in DMSO were transferred to 96-well assay plates (Costar 3195), followed by the addition of 50 µl of an overnight culture of SB75 ΔtolC::kan (pluc-trpAt) that had been diluted to a final OD600 of 0.4 with LB media supplemented with 100 µg ampicillin/ml and 1 mM IPTG. […] The assay plates were incubated at room temperature for 2 h, and 50 µl of BrightGlo (Promega) bioluminescence reagent was added to each well. After 10 min incubation, bioluminescence intensity was measured using an Envision multi-label plate reader (Perkin Elmer). Each assay comprised three technical replicates, and the experiment was repeated three times. The fold induction for each MBX-4132 treated sample as compared to the DMSO-only sample was calculated for each technical replicate, and the average and standard deviation of the three technical was calculated. The IC50 was determined using a 4-parameter nonlinear curve fitting algorithm (GraphPad Prism)."}, "[4]": {"experiment": "Liver microsome stability, murine", "type": "in vitro ADME, mouse", "settings": "murine liver microsomes", "method_in_brief": "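Compounds incubated with liver microsomes plus NADPH over 30 min; parent remaining quantified by reverse-phase LC/MS. Half-life from linear regression over several time points.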"}, "[5]": {"system": "HeLa cells", "experiment": "Mammalian cell cytotoxicity (CC50)", "type": "cell-based, human", "settings": "one value per replicate"}, "[6]": {"experiment": "Aqueous solubility (nephelometric)", "type": "physicochemical"}, "[7]": {"system": "Neisseria gonorrhoeae", "experiment": "MIC, microbroth dilution, G77L medium", "type": "cell-based", "settings": "Neisseria gonorrhoeae ATCC 49226; source data, individual replicates"}},
  "note": "Several values for one entry are separate records, joined by “and”; a condition that tells them apart may be missing. Equal values may be shown once.",
  "data": [
    {"smiles": "Fc1ccc(-c2nnc(NCc3ccc(Cl)cc3)o2)cc1", "note": "[MBX-3776]", "values": [
      {"measurement": "NORMALIZED DATA (Fraction DMSO Control)", "setting": "[1]; [CMPD] 0.78125 µM", "value": "0.9425 Fraction DMSO Control and 0.9291 Fraction DMSO Control and 1.002 Fraction DMSO Control and 0.9674 Fraction DMSO Control and 0.9349 Fraction DMSO Control and 0.9583 Fraction DMSO Control"},
      {"measurement": "NORMALIZED DATA (Fraction DMSO Control)", "setting": "[1]; [CMPD] 1.5625 µM", "value": "0.9887 Fraction DMSO Control and 1.033 Fraction DMSO Control and 1.0461 Fraction DMSO Control and 0.981 Fraction DMSO Control and 0.9949 Fraction DMSO Control and 1.019 Fraction DMSO Control"},
      {"measurement": "NORMALIZED DATA (Fraction DMSO Control)", "setting": "[1]; [CMPD] 3.125 µM", "value": "0.9887 Fraction DMSO Control and 0.9933 Fraction DMSO Control and 1.016 Fraction DMSO Control and 0.9805 Fraction DMSO Control and 0.9905 Fraction DMSO Control and 1.024 Fraction DMSO Control"},
      {"measurement": "NORMALIZED DATA (Fraction DMSO Control)", "setting": "[1]; [CMPD] 6.25 µM", "value": "0.964 Fraction DMSO Control and 0.9895 Fraction DMSO Control and 1.009 Fraction DMSO Control and 1.011 Fraction DMSO Control and 0.9848 Fraction DMSO Control and 0.9995 Fraction DMSO Control"},
      {"measurement": "NORMALIZED DATA (Fraction DMSO Control)", "setting": "[1]; [CMPD] 12.5 µM", "value": "0.9916 Fraction DMSO Control and 1.003 Fraction DMSO Control and 0.985 Fraction DMSO Control and 0.9785 Fraction DMSO Control and 0.9711 Fraction DMSO Control and 0.9946 Fraction DMSO Control"},
      {"measurement": "NORMALIZED DATA (Fraction DMSO Control)", "setting": "[1]; [CMPD] 25 µM", "value": "0.8342 Fraction DMSO Control and 0.8793 Fraction DMSO Control and 0.8796 Fraction DMSO Control and 0.8381 Fraction DMSO Control and 0.8221 Fraction DMSO Control and 0.8915 Fraction DMSO Control"},
      {"measurement": "NORMALIZED DATA (Fraction DMSO Control)", "setting": "[1]; [CMPD] 50 µM", "value": "0.8682 Fraction DMSO Control and 0.9316 Fraction DMSO Control and 0.8851 Fraction DMSO Control and 0.8718 Fraction DMSO Control and 0.8862 Fraction DMSO Control and 0.9022 Fraction DMSO Control"},
      {"measurement": "NORMALIZED DATA (Fraction DMSO Control)", "setting": "[1]; [CMPD] 100 µM", "value": "0.8662 Fraction DMSO Control and 0.9027 Fraction DMSO Control and 0.8885 Fraction DMSO Control and 0.8759 Fraction DMSO Control and 0.8519 Fraction DMSO Control and 0.9047 Fraction DMSO Control"},
      {"measurement": "MIC", "setting": "[2]", "value": ">=30.372 µg/ml"},
      {"measurement": "IC50", "setting": "[3]", "value": "≥ 25", "unit": "µM"},
      {"measurement": "Average MLMS t½", "setting": "[4]; average of replicates", "value": 5.3, "unit": "min"},
      {"measurement": "MLMS t½", "setting": "[4]; individual replicates", "value": "4.3 min and 6.3 min"},
      {"measurement": "CC50", "setting": "[5]", "value": "≥ 100", "unit": "µM"},
      {"measurement": "Average solubility", "setting": "[6]", "value": 25, "unit": "µM"},
      {"measurement": "Solubility", "setting": "[6]; single replicates", "value": 25, "unit": "µM"},
      {"measurement": "MIC", "setting": "[7]", "value": ">=30.372 µg/ml"}
    ]}
  ]
}
